Assay results as given in patent US4191808A, “Method of measuring dipeptidyl-amino-peptidase activity” (Ajinomoto Co., Inc., priority 1975, dated 1980).
Peptide text beside a SMILES is read from it. * marks the point of attachment. pNA = O=[N+]([O-])c1ccc(N*)cc1

Tests used:
[1] = system: human serum; experiment: Paper chromatography of products after incubation with human serum; type: biochemical; details: incubation 30 minutes
Protocol: The products obtained after incubating various X-L-proline p-nitroanilides with purified human submaxillary enzyme or human serum for 30 minutes as in Example 22 were examined by paper chromatography, the residues of glycine, L-alanine, L-glutamic acid, L-aspartic acid, L-lysine and L-argine being used as the N-terminal amino acids (X).
When the rate of hydrolysis of L-proline p-nitroanilide by human serum was examined, it was observed only 0.7% of hydrolysis of glycyl-L-proline p-nitroanilide.

[2] = Stability of aqueous substrate solution; type: physicochemical; details: at the optimum pH, 4° C.
Protocol: The enzyme activity is measured without difficulty by using the dipeptide derivatives or salts thereof as substrates. An aqueous solution of X-L-proline-Y or salt thereof having a suitable concentration is first prepared. Since it requires a fairly long time to dissolve the substrate in water, it is preferred to use suitable substances capable of increasing the dissolution rate such as non-ionic detergents, acids and alcohols, or to use the substrate in the porous form which may be prepared by freeze-drying or the like. The porous substrate is most convenient for routine use for assay of the enzyme. The optimum pH of the substrate solution varies depending on the kind of substrate employed, but is easily determined by experiments. The optimum pH is usually in the range of from 6 to 9, preferably of from 7.5 to 8.9.

[3] = system: purified human submaxillary enzyme (X-prolyl dipeptidyl-aminopeptidase); experiment: Direct photometric assay of substrate hydrolysis with purified human submaxillary enzyme; type: biochemical
Protocol: (§1) 3mM substrate solutions were prepared as in Example 22, various dipeptide derivatives or salts thereof being used as substrates. The relative enzyme activities toward various substrates, and the rates and optimum pHs of hydrolysis of various substrates with the enzyme were measured as in Example 22.
^a Activities were measured in 0.15 M Trismaleate buffer at pH 5.6-8.
and in 0.15 M glycineNaOH buffer at pH 8.2-9.4, purified human
submaxillary enzyme being used. For Lalanyl-L-proline pnitroanilide,
amidiol buffer were used instead of glycine buffer, since glycine buffer
interfered the photometry at pH 9-10.
^b Km values were measured at 7.0 in Trismaleate buffer, purified
human submaxillary enzyme being used. The values are the mean of duplicat
(§2) ^c Activities were measured at pH 7.0 in 0.15 M Trismaleate buffer or
(§3) at pH 8.7 in 0.15 M glycineNaOH buffer. The values are the mean of
^d The purified enzyme was obtained by the following method; The
enzyme was solubilized from the microsomal fraction by autodigestion, and
subsequently purified by (NH4)2 SO4 fractionation followed
by Sephadex G200 chromatography.

[4] = target: T1, X-prolyl dipeptidyl-aminopeptidase in human serum (Homo sapiens, UniProt P27487); experiment: Direct photometric assay of substrate hydrolysis (p-nitroaniline liberated, 385 nm) with human serum as enzyme source; type: biochemical; details: for Enzyme activity (μmole/min/1 serum ± S.E.): 3 cases; for Amount of p-nitroaniline formed: 37° C., pH 8.7, 0.05 ml human serum; for Enzyme activity average ± S. E.: normal human sera
T1 construct: Even if crude enzyme such as human serum is used as enzyme source, the activity is accurately measured; from tissue; host or cells: human serum (normal subjects and patients)
Protocol: The relation between the incubation time and the amount of substrate hydrolyzed was examined, glycyl-L-proline p-nitroanilide and human serum being used as substrate and enzyme source, respectively, and the assay of the substrate hydrolyzed was carried out by the following direct photometric method.
Glycyl-L-proline p-nitroanilide tosylate was dissolved in 2% non-ionic detergent (Nikkol NP-10; Nikko Chemicals, Osaka, Japan) aqueous solution in a concentration of 3 mM to prepare the substrate solution. The following four tubes were prepared:
(1) the experimental tube contained 0.5 ml of 0.15 M glycine-NaOH buffer (pH 8.7), 0.5 ml of the substrate solution, and 0.05 ml of human serum
(2) the blank tube contained 0.5 ml of the 0.15 M glycine-NaOH buffer, 0.5 ml of the substrate solution and 0.05 ml of water.
(3) the standard tube contained 0.5 ml of the buffer, 0.5 ml of the substrate and 0.05 ml of 3 mM p-nitroaniline aqueous solution.
(4) the control tube contained 0.5 ml of the buffer and 0.5 ml of the substrate.
All tubes were incubated at 37° C. for the periods listed in Table 1, and the reaction was stopped by the addition of 3.0 ml of 1M acetate buffer (pH 4.2) to every tube. To the control tube, 0.05 ml of the human serum was added after stopping the reaction. A photometer was adjusted to zero with the blank, and the absorbances of the experimental (E), control (C), and standard (S) were read at 385 nm in a cuvette with 1 cm light path. p-Nitroaniline liberated by the enzyme reaction was calculated by the equation [formula]
as §1, §2, §3
The activity of X-prolyl dipeptidyl-aminopeptidase was measured as in Example 22, glycyl-L-proline p-nitroanilide and 88 normal human sera being used as substrate and enzyme, respectively.
The activity of X-prolyl dipeptidyl-aminopeptidase was measured as in Example 22, glycyl-L-proline p-nitroanilide and human sera from patients being used as substrate and enzyme sources, respectively.
The activity of X-prolyl dipeptidyl-aminopeptidase was measured as in Example 22, various X-L-prolyl p-nitroanilides, and human sera from patients being used as substrates and enzyme sources, respectively.

[5] = target: T1, X-prolyl dipeptidyl-aminopeptidase in human serum; experiment: Hydrolysis of phenylazo substrates by human serum, photometry at 493 nm / 532 nm; type: biochemical
Protocol: 3 mM of substrate solutions were prepared as in Example 22, glycyl-L-proline p-phenylazoanilide tosylate and glycyl-L-proline 4-phenylazo-1-naphthylamide being used as substrates.
The assay of enzyme activity was carried out by adding 0.05 ml of human serum to a mixture of 0.5 ml […] glycine-NaOH buffer (pH 8.7) and 0.5 ml substrate solution in the experimental tube, incubating the resulting solution at 37° C. for 30 minutes, and then stopping the reaction with 3.0 ml 1N-hydrochloric acid. The absorbances were A 493 nm=0.18 for glycyl-L-proline p-phenylazoanilide and A 532 nm=0.80 for glycyl-L-proline 4-phenylazo-1-naphthylamide.
The rate of hydrolysis of glycyl-L-proline p-phenylazoanilide was measured as in Example 26, human serum being used as enzyme. However, the blank tube contained water instead of the enzyme solution in the experimental tube, and the standard tube contained 3 mM p-phenylazo-aniline solution instead of the enzyme solution in the experimental tube.

T1 sequence (P27487 39-766 limits assumed): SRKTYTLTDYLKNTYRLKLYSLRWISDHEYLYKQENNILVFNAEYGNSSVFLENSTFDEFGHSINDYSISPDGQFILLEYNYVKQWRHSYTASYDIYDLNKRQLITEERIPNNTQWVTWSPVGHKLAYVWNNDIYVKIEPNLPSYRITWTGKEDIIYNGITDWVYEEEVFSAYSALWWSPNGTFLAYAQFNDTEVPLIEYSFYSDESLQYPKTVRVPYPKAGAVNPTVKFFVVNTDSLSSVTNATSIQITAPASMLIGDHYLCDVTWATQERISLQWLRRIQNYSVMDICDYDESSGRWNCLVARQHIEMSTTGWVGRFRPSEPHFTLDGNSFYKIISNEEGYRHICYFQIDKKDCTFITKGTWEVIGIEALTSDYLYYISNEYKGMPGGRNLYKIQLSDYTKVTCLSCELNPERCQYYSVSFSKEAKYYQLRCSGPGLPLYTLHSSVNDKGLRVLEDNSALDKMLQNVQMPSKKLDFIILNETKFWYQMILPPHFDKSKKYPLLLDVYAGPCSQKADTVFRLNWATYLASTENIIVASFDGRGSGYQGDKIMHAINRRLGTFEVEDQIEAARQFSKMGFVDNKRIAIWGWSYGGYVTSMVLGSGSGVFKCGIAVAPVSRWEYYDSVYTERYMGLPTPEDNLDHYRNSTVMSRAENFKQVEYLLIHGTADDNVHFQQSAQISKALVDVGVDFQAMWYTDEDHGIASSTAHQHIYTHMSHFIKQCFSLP

For `NCC(=O)N1CCC[C@H]1C(=O)O` [Glycyl-L-proline] (H-Gly-Pro-OH), the “products identified by paper chromatography / hydrolysis by human serum” value [1] was “hydrolyzed to glycine and L-proline”.

For `NCC(=O)N1CCC[C@H]1C(=O)Nc1ccc([N+](=O)[O-])cc1` [glycyl-L-proline p-nitroanilide, Glycyl-L-proline p-nitroanilide] (H-Gly-Pro-pNA), the “storage of substrate solution without appreciable degradation” value [2] was “more than a week”, the “Optimum pH” value ([3]; Tris-maleate, glycine-NaOH or amidiol buffer) was 8.5-8.7 and the “Relative enzyme activity (%) Purified human submaxillary enzyme pH 7.0” value ([3]; pH 7.0, 0.15 M Tris-maleate buffer, glycyl-L-proline p-nitroanilide = 100) was 100%. The Km ([3]; pH 7.0, Tris-maleate buffer, mean of duplicate experiments) was 330 µM, the “products identified by paper chromatography / hydrolysis by human serum” value [1] was “glycyl-L-proline, glycine, L-proline and p-nitroaniline were identified” and the Enzyme activity ([4]; human sera from patients, Acute lymphocytic leukemia, 22 cases) was 38.8 ± 11.9 μmole/min/1 serum. The Enzyme activity ([4]; human sera from patients, Early essential hypertension, 20 cases) was 80.94 ± 3.87 μmole/min/1 serum, the Enzyme activity ([4]; human sera from patients, Fixed essential hypertension, 17 cases) was 89.29 ± 3.69 μmole/min/1 serum and the “Enzyme activity (μmole/min/1 serum ± S.E.)” value ([4]; human sera from patients, Gastric Cancer) was 25.3 ± 3.0 μmole/min/1 serum. The Enzyme activity ([4]; human sera from patients, Gastric Cancer, 37 cases) was 38.4 ± 2.3 μmole/min/1 serum, the “Enzyme activity (μmole/min/1 serum ± S.E.)” value ([4]; human sera from patients, Hepatitis) was 143.0 ± 31.8 μmole/min/1 serum and the Enzyme activity ([4]; human sera from patients, Hepatitis, 23 cases) was 75.8 ± 28.5 μmole/min/1 serum. The Enzyme activity ([4]; human sera from patients, Hodgkin's disease, 15 cases) was 31.0 ± 9.5 μmole/min/1 serum, the Enzyme activity ([4]; human sera from patients, Lymphosarcoma, 11 cases) was 36.3 ± 5.6 μmole/min/1 serum and the Enzyme activity ([4]; human sera from patients, Pulmonary Cancer, 17 cases) was 39.8 ± 2.6 μmole/min/1 serum. The “Enzyme activity (μmole/min/1 serum ± S.E.)” value ([4]; human sera, Normal (control)) was 50.4 ± 15.0 μmole/min/1 serum, the Enzyme activity ([4]; human sera, Normal (control), 88 cases) was 54.9 ± 1.5 μmole/min/1 serum and the “Relative enzyme activity (%) Human serum pH 7.0” value ([4]; human serum, pH 7.0, 0.15 M Tris-maleate buffer, glycyl-L-proline p-nitroanilide = 100) was 100%. The “Relative enzyme activity (%) Human serum pH 8.7” value ([4]; human serum, pH 8.7, 0.15 M glycine-NaOH buffer, glycyl-L-proline p-nitroanilide = 100) was 100%, the “Amount of p-nitroaniline formed” value ([4]; incubation time 15 min) was 18.11 n mole and the “Amount of p-nitroaniline formed” value ([4]; incubation time 30 min) was 35.43 n mole. For the same molecule, the “Amount of p-nitroaniline formed” value ([4]; incubation time 60 min) was 71.65 n mole, the “Amount of p-nitroaniline formed” value ([4]; incubation time 90 min) was 100.79 n mole and the “Amount of p-nitroaniline formed” value ([4]; incubation time 120 min) was 135.43 n mole. The “Enzyme activity average ± S. E.” value ([4]; Older Female, 17 subjects, 48-76 years) was 58.16 ± 4.37 μ mole/min/1 serum, the “Enzyme activity average ± S. E.” value ([4]; Older Male, 29 subjects, 41-81 years) was 53.18 ± 2.43 μ mole/min/1 serum and the “Enzyme activity average ± S. E.” value ([4]; Older, 46 subjects, 41-81 years) was 55.04 ± 2.23 μ mole/min/1 serum. For the same molecule, the “Enzyme activity average ± S. E.” value ([4]; Total Female, 35 subjects, 20-76 years) was 52.49 ± 2.47 μ mole/min/1 serum, the “Enzyme activity average ± S. E.” value ([4]; Total Male, 53 subjects, 15-81 years) was 56.30 ± 1.90 μ mole/min/1 serum and the “Enzyme activity average ± S. E.” value ([4]; Total, 88 subjects, 15-81 years) was 54.88 ± 1.50 μ mole/min/1 serum. For the same molecule, the “Enzyme activity average ± S. E.” value ([4]; Younger Female, 18 subjects, 20-40 years) was 47.59 ± 2.07 μ mole/min/1 serum, the “Enzyme activity average ± S. E.” value ([4]; Younger Male, 24 subjects, 15-40 years) was 60.10 ± 2.84 μ mole/min/1 serum and the “Enzyme activity average ± S. E.” value ([4]; Younger, 42 subjects, 15-40 years) was 54.76 ± 2.07 μ mole/min/1 serum.

In the case of `Cc1ccc(S(=O)(=O)O)cc1.NCC(=O)N1CCC[C@H]1C(=O)Nc1ccc(N=Nc2ccccc2)cc1` [glycyl-L-proline p-phenylazoanilide, Glycyl-L-proline p-phenylazoanilide tosylate], the “absorbance A 493 nm” value ([5]; 0.05 ml human serum, pH 8.7, 37° C., 30 minutes) is reported as 0.18 and the rate of hydrolysis ([5]; human serum as enzyme, as in Example 26) is reported as 18.7 n mole/min./l serum.
